In patent US12521438B2, “SMARCA degraders and uses thereof” (Kymera Therapeutics, Inc., priority 2019, dated 2026):

How the values were obtained:
Type in all cases: cell-based
SMARCA4 = biological target: T1, SMARCA4 (Homo sapiens, UniProt P51532); assay: SMARCA4 Western blot MV4-11 degradation; details: MV4-11 cells, 24 hours; for Dmax: read-out: SMARCA4 WB MV411 degradation 24h: Average Dmax %; for DC50: read-out: SMARCA4 WB MV411 degradation 24h: Average external-Abs DC50
T1 construct: endogenous in cells; host or cells: MV4-11
T1 sequence (P51532 whole entry): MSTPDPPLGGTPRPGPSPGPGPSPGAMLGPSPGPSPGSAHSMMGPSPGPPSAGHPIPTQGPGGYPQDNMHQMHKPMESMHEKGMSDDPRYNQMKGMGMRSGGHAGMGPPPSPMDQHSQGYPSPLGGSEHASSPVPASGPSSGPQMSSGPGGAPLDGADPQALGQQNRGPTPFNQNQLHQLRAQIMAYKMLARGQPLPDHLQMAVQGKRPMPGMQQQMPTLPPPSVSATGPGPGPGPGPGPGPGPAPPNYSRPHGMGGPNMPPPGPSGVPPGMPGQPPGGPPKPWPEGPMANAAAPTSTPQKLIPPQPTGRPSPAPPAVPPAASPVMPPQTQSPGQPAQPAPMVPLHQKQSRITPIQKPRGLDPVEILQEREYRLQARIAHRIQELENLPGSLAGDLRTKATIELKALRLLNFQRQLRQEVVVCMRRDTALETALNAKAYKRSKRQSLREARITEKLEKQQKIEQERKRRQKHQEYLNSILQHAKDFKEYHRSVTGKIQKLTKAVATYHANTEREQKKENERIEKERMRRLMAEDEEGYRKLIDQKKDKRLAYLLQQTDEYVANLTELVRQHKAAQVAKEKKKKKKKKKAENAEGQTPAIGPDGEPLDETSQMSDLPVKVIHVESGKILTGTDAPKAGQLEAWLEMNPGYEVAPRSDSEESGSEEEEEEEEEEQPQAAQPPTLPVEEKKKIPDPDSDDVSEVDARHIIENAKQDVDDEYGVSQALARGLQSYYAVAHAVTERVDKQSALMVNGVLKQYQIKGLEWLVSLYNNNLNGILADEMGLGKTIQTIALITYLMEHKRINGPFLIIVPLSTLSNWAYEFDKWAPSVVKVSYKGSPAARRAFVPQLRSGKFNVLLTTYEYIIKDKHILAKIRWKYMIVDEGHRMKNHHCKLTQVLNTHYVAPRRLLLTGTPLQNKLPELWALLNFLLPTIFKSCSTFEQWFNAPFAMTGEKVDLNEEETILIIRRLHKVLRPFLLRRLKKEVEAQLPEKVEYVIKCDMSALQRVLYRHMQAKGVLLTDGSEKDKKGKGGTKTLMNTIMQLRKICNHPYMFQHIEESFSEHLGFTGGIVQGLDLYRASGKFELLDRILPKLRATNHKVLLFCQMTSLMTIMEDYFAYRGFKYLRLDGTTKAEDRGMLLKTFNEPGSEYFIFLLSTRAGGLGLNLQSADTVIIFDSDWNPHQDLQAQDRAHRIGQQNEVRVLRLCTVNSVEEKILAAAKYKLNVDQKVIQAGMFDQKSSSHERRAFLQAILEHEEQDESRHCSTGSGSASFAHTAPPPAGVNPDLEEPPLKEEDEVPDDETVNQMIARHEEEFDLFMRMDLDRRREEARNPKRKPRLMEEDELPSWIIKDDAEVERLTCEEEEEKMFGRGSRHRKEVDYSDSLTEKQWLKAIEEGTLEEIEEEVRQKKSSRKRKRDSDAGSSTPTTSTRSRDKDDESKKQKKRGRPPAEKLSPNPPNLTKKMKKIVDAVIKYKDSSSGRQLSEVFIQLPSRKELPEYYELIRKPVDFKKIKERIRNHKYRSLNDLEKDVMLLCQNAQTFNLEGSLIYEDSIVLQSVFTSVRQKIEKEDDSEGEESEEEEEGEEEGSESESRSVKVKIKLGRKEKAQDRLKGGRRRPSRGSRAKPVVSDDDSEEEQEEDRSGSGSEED
Protocol: (§1) Example 10. SMARCA2 and SMARCA 4 Western Blot MV4-11 Degradation
(§2) Cells were seeded into 6-well plates (MV4-11: 4×10^6 cells/well/1 ml) and 1 ml of 2× compound solution was added into the well to make the final concentration and the plates were mixed well and incubated for 24 hours (No cytotoxicity was observed). The cell were collected with media and spun at 3000 rpm for 5 minutes. The supernatant was aspirated and the well and the cells were washed with cold PBS once and combined for centrifugation again; the supernatant aspirated again. 200 ul pre-chilled RIPAlysis buffer (Boston BioProducts BP-115D) with protease/phosphatase inhibitor (Roche 05892791001/Roche 04906837001) was directly added into the tube to lyze the cells for 20 minutes on ice. The cell lysate were collected into EP tubes and spun at 13000 rpm for 20 minutes and 72 ul supernatant was transferred to a fresh EP tube containing 18 ul of 5× loading buffer (Beyotime Bio P0015) to make the loading samples. The samples were heated to 100° C. for 10 minutes and cooled to RT and microcentrifuged. 20 ul of samples were loaded onto SDS-PAGE gel (Novex, WG1402BOX) and the gel was run at 80 V for 20 minutes and 120 V for 1.5 hours. The samples were electrotransfer to a NC membrane using wet-transfer method with 250 mA for 2.5 hours. The membrane was blocked with LICOR blocking buffer (LI-COR, 927-50000) for 1 hour. The membrane was washed three times with TBST (CST #9997S), 5 minutes each. Incubation was performed with primary antibody prepared in blocking buffer with 0.1% Tween-20 (Solarbio, P8220) at 4° C. overnight (Anti-SMARCA2/BRM antibody (ab15597) 1:500; Anti-BRG1 antibody [EPR3912] (ab108318) 1:1000; Rabbit anti-Baf180 antibody [EPR15860] (Abcam,ab196022) 1:1000; mouse anti-beta-Actin (8H10D10) (CST #3700) 1:10000). The membrane was washed three times with TBST, 5 minutes each. Incubation with secondary antibody was performed for 1 hour at RT (anti-rabbit IgG (Licor, 926-32211) 1:5000; anti-mouse IgG (LI-COR, 926-68070) 1:5000). The membrane was washed three times with 5 minutes each and lastly the LiCOR was read.

SMARCA2 [1] = biological target: T2, SMARCA2 (Homo sapiens, UniProt P51531); assay: MSD SMARCA2 degradation in A549 cell line; parameters: endogenous in cells; host or cells: A549; details: A549 cells, 24 hours; for DC50: read-out: SMARCA2 MSD A549 degradation 24h: Average external-Abs DC50
T2 sequence (P51531 whole entry): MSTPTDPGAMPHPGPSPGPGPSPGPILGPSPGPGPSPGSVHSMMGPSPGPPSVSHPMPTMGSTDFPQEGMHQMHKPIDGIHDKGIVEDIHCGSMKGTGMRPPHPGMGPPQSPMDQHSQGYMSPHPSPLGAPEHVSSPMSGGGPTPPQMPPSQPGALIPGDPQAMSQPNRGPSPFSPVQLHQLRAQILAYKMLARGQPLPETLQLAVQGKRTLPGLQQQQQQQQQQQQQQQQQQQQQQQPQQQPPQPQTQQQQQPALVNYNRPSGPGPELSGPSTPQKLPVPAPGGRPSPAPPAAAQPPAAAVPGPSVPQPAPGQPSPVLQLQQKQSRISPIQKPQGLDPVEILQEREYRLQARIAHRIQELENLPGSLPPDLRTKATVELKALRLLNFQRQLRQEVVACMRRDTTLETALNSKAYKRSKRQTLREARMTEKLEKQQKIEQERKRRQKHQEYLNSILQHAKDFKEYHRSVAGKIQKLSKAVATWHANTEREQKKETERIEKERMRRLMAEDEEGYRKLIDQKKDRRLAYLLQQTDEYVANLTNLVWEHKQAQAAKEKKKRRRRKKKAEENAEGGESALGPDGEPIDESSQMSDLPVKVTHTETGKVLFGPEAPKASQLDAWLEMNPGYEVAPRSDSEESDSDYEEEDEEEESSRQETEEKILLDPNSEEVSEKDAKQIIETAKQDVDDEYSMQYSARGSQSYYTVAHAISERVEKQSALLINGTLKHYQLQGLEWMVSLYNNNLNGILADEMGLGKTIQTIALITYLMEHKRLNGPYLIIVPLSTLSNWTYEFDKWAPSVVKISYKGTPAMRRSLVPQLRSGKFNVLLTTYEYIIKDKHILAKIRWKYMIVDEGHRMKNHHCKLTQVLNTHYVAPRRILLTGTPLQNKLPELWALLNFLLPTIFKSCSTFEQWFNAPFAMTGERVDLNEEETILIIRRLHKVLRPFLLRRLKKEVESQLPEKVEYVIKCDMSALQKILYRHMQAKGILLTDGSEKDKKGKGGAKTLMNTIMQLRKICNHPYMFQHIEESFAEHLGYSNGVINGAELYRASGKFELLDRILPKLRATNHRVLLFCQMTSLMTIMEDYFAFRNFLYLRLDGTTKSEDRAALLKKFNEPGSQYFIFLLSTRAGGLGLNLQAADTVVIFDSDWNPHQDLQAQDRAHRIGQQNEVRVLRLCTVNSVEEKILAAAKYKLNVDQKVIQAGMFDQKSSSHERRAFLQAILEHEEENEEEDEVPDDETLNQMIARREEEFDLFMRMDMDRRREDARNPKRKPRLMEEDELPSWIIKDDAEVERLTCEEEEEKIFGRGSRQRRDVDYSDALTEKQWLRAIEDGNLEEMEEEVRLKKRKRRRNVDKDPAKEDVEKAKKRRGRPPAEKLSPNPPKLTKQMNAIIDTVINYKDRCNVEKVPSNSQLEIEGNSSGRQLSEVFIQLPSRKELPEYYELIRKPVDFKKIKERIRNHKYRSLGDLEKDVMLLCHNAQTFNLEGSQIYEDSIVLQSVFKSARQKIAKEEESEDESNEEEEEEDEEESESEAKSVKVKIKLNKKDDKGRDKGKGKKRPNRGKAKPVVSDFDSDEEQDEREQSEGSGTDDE
Protocol: Example 9. MSD SMARCA2 Degradation in A549 Cell Line
Cells were seeded into 96-well plates (A549 cells: 2×10^4 cells/well/100 ul media) abd incubated overnight. The next day, 200 nl compound were added into the intermediate plate with Echo (Labcyte 550) from source plate containing a 3-fold serial dilution from top concentration of 1 mM. The culture medium was changed with 80 ul of fresh medium and 80 ul of 2× compound solution was added into the well to make a final concentration of 1000 nM, 333.3 nM, 111.1 nM, 37.04 nM, 12.35 nM, 4.115 nM, 1.372 nM, 0.457 nM, 0.152 nM and 0 nM (DMSO). The wells were mixed and then incubated for 24 hours. The media was aspirated from the cultures and 60 ul pre-chilled PIPA lysis buffer (Boston BioProducts BP-115D) with protease/phosphatase inhibitor (Roche 05892791001/Roche 04906837001) was added into the well to lyze the cells for 20 minutes at 4° C. The MSD plate (L15XA) was coated with 40 ul cell lysate and incubated at 4° C. overnight. The next day, the plate was washed three times with TBST (CST #9997S), 150 ul/well. The MSD plates was blocked with 150 ul blocking buffer per well and shaked for 1 hr at RT, 600 rpm. The blocking buffer was 3% Blocker A (MSD, R93BA-4) in TBST. The MSD plate was washed three times with 150 ul/well of TBST and 25 ul/well of detection antibody (Rabbit anti-SMARCA2/BRM antibody, 100 μg/ml, ab223735) was added at final concentration of 1 ug/ml diluted in 1% Blocking buffer and shaken for 1 hour at RT, 600 rpm. The MSD plate was washed three times with 150 ul/well of TBST and 25 ul/well of SULFO-TAG anti-rabbit antibody (MSD, R32AB-1) was added at final concentration of 1 ug/ml diluted in 1% Blocking buffer and shaken for 1 hour at RT, 600 rpm. The MSD plate was washed three times with 150 ul/well of TBST and 150 ul/well of 2×MSD reading buffer diluted from 4× (MSD, R92TC-2) with water was added. Lastly, the MSD instrument was read.

SMARCA2 [2] = biological target: T2, SMARCA2; assay: SMARCA2 Western blot MV4-11 degradation; parameters: endogenous in cells; details: MV4-11 cells, 24 hours
Protocol: as §1
as §2, with “The membrane was blocked with LICOR blocking buffer (LI-COR, 927-50000) for 1 hour. The membrane was washed three times with TBST (CST #9997S), 5 minutes each. Incubation was performed with primary antibody prepared in blocking buffer with 0.1% Tween-20 (Solarbio, P8220) at 4° C. overnight (Anti-SMARCA2/BRM antibody (ab15597) 1:500; Anti-BRG1 antibody [EPR3912] (ab108318) 1:1000; Rabbit anti-Baf180 antibody [EPR15860] (Abcam,ab196022) 1:1000; mouse anti-beta-Actin (8H10D10) (CST #3700) 1:10000). The membrane was washed three times with TBST, 5 minutes each. Incubation with secondary antibody was performed for 1 hour at RT (anti-rabbit IgG (Licor, 926-32211) 1:5000; anti-mouse IgG (LI-COR, 926-68070) 1:5000).” left out

SMARCA2 [3] = biological target: T2, SMARCA2; assay: MSD SMARCA2 degradation in NCI-H1299 cell line; parameters: endogenous in cells; details: NCI-H1299 cells, 24 hours
Protocol: Example 8. MSD SMARCA2 Degradation in NCI-H1299 Cell Line
Cell Culture: Cells were Cultured in Exponential Growth Phase.
Compound Preparation and Treatment: NCI-H1299 cells were seeded into the 96-well plate at 4.0*10^4 cells per 100 ul per well. Incubate the plate in the incubator overnight. The next day, compounds were diluted to designed stock concentration by TECAN, then perform a 3 fold, 9-point dilution via transferring 15 uL compound into 30 μL DMSO using Apricot. 200 nL diluted compound from compound source plate were transferred into the 96-intermediate plate as designated by using Echo550, followed with 100 ul culture medium to make the 2× compound solution. Cell plate were changed with 80 ul of fresh culture medium and 80 ul of 2× compound solution was added into the well to achieve the final designed concentration. Cell plate was then shaken at 720 rpm for 5 min and incubated for 24 hours in the incubator.
Sample Preperation: Media was aspirated from the cultures and the plate was washed with PBS twice. 60 ul of pre-chilled PIPA lysis buffer (Boston BioProducts BP-115D) with protease inhibitor were directly added into the well to lyze the cells for 20 minutes at 4° C. Cell lysates were collected.
MSD Procedure: The MSD plate was coated with 40 ul cell lysate and incubated at 4° C. overnight. The next day, the MSD coated bare plate was washed 3 times with 150 ul 1×TBST per well, blocked with 150 ul of blocking buffer per well, and shaken for 1 hour at RT, 600 rpm. Blocking buffer was 3% Blocker A in TBST. MSD plate was then washed 3 times with 150 ul 1× TBST per well and Primary Detection antibody (Rabbit anti-SMARCA2/BRM antibody, 100 μg/ml, ab223735) was added to a final [conc.]: 0.3 ug/ml, 25 ul/well and shaken for 1 hour at RT, 600 rpm. Antibody was prepared in Antibody Detection buffer (1% Blocker A in 1×TBST). The MSD plate was then washed 3 times with 150 ul 1×TBST per well. Secondary Detection antibody (SULFO-TAG anti-species antibody) was then added to a final [conc.]: 1 ug/ml, 25 ul/well, and shaken for 1 hour at RT, 600 rpm. Antibodies were prepared in Antibody Detection buffer (1% Blocker A in 1×TBST). MSD plate was washed 3 times with 150 ul 1×TBST per well and 2× MSD reading buffer was added, 150 ul per well, and diluted from 4× with water. MSD instrument was then read.
Data Analysis: The percentage of relative level of SMARCA2 level was calculated following equation below.
LC: A2780, SMARCA2 negative cells. HC: NCI-H1299 cells treated with DMSO.

Row | Compound | Dmax (SMARCA4) [%] | DC50 (SMARCA4) [nM] | Dmax (SMARCA2 [1]) [%] | DC50 (SMARCA2 [1]) [nM] | Dmax (SMARCA2 [2]; read-out: SMARCA2 WB MV411 degradation 24h: Average Dmax %) [%] | DC50 (SMARCA2 [2]; read-out: SMARCA2 WB MV411 degradation 24h: Average external-Abs DC50) [nM] | Dmax (SMARCA2 [3]) [%]
1 | Cc1ncsc1-c1ccc(CNC(=O)[C@@H]2C[C@@H](O)CN2C(=O)[C@@H](NC(=O)[C@H]2CC[C@H](c3cnc(N4CCC(c5c[nH]c6nnc(-c7ccccc7O)cc56)CC4)nc3)CC2)C(C)(C)C)cc1 [I-46, (2S,4R)-4-hydroxy-1-((S)-2-((1r,4S)-4-(2-(4-(3-(2-hydroxyphenyl)-7H-pyrrolo[2,3-c]pyridazin-5-yl)piperidin-1-yl)pyrimidin-5-yl)cyclohexanecarboxamido)-3,3-dimethylbutanoyl)-N-(4-(4-methylthiazol-5-yl)benzyl)pyrrolidine-2-carboxamide] | 50 to 70 | > 1000 | > 90 | < 100 | > 90 | < 100 | 
2 | Cc1ncsc1-c1ccc(CNC(=O)[C@@H]2C[C@@H](O)CN2C(=O)[C@@H](NC(=O)CCCCCN2CCC(c3c[nH]c4nnc(-c5ccccc5O)cc34)CC2)C(C)(C)C)cc1 [I-9] |  |  |  |  |  |  | < 50
3 | Cc1ncsc1-c1ccc(CNC(=O)[C@@H]2C[C@@H](O)CN2C(=O)[C@@H](NC(=O)CCCCCCCN2CCC(c3c[nH]c4nnc(-c5ccccc5O)cc34)CC2)C(C)(C)C)cc1 [I-12] |  |  |  |  |  |  | < 50
4 | Cc1ncsc1-c1ccc(CNC(=O)[C@@H]2C[C@@H](O)CN2C(=O)[C@@H](NC(=O)CCCCCCCCCN2CCC(c3c[nH]c4nnc(-c5ccccc5O)cc34)CC2)C(C)(C)C)cc1 [I-8] |  |  |  |  |  |  | 50 to 70
5 | Cn1c(=O)n(C2CCC(=O)NC2=O)c2cccc(CCCN3CCC(c4c[nH]c5nnc(-c6ccccc6O)cc45)CC3)c21 (stereo not shown) [I-11, 3-(4-(3-(4-(3-(2-hydroxyphenyl)-7H-pyrrolo[2,3-c]pyridazin-5-yl)piperidin-1-yl)propyl)-3-methyl-2-oxo-2,3-dihydro-1H-benzo[d]imidazol-1-yl)piperidine-2,6-dione] | < 50 |  |  |  |  |  | < 50
6 | Cn1c(=O)n(C2CCC(=O)NC2=O)c2cccc(CCCOCCCN3CCC(c4c[nH]c5nnc(-c6ccccc6O)cc45)CC3)c21 (stereo not shown) [I-6] | < 50 | 100 to 500 |  |  |  |  | < 50
7 | Cn1c(=O)n(C2CCC(=O)NC2=O)c2ccc(CCCCCCCCCN3CCC(c4c[nH]c5nnc(-c6ccccc6O)cc45)CC3)cc21 (stereo not shown) [I-7] | < 50 | < 100 |  |  |  |  | < 50
8 | NCC#Cc1cnc(N2CCC(c3c[nH]c4nnc(-c5ccccc5O)cc34)CC2)nc1 [I-55, 2-(5-(1-(5-(3-aminoprop-1-yn-1-yl)pyrimidin-2-yl)piperidin-4-yl)-7H-pyrrolo[2,3-c]pyridazin-3-yl)phenol] | > 90 | > 1000 | < 50 | > 1000 |  |  | 
9 | Cn1c(=O)n(C2CCC(=O)NC2=O)c2cccc(CCCCCN3CCC(c4c[nH]c5nnc(-c6ccccc6O)cc45)CC3)c21 (stereo not shown) [I-10] | < 50 | < 100 |  |  |  |  | < 50
10 | Cc1ncsc1-c1ccc(CNC(=O)[C@@H]2C[C@@H](O)CN2C(=O)[C@@H](NC(=O)CN2CCC(c3cc(N4CCC(c5c[nH]c6nnc(-c7ccccc7O)cc56)CC4)ncn3)CC2)C(C)(C)C)cc1 [I-54, (2S,4R)-4-hydroxy-1-((S)-2-(2-(4-(6-(4-(3-(2-hydroxyphenyl)-7H-pyrrolo[2,3-c]pyridazin-5-yl)piperidin-1-yl)pyrimidin-4-yl)piperidin-1-yl)acetamido)-3,3-dimethylbutanoyl)-N-(4-(4-methylthiazol-5-yl)benzyl)pyrrolidine-2-carboxamide] | > 90 | > 1000 | < 50 | > 1000 |  |  | 
11 | Cn1c(=O)n(C2CCC(=O)NC2=O)c2cccc(CN3CCC(c4c[nH]c5nnc(-c6ccccc6O)cc45)CC3)c21 (stereo not shown) [I-13] | < 50 | < 100 |  |  |  |  | < 50
